Measured values from US9340523B2, “Certain dipeptidyl peptidase inhibitors” (FOCHON PHARMA, INC., priority 2009, dated 2016).

molecular target: Recombinant human DPP-IV (Homo sapiens, UniProt P27487); assay: DPP-IV assay in vitro (H-Ala-Pro-AFC fluorescence); format: biochemical; settings: recombinant human DPP-IV 7.8 ng/ml, 30 min pre-incubation, H-Ala-Pro-AFC 50 μM
Procedure: DPP-IV Assay Solutions of test compounds in varying concentrations (10^−5 mol/L, 10^−6 mol/L, 10^−7 mol/L, 10^−8 mol/L, 10^−9 mol/L, 10^−10 mol/L, 10^−11 mol/L, and 10^−12 mol/L) were prepared in dimethyl sulfoxide (DMSO) and then diluted into assay buffer comprising: 10 mM Tris-HCl pH 8.0, 0.2 M NaCl, and 0.1% BSA. Recombinant human DPP-IV (7.8 ng/ml final concentration) was added to the dilutions and pre-incubated for 30 mins at room temperature before the reaction was initiated with H-Ala-Pro-AFC (50 μM final concentration). The total volume of the reaction mixture was 100 μl.
The fluorescence of the mixture was measured after 30 minutes (excitation at 405 nm; emission at 535 nm). Inhibition constants (IC50) were calculated by GraphPad Prism.

Sequence of Recombinant human DPP-IV (P27487 whole entry): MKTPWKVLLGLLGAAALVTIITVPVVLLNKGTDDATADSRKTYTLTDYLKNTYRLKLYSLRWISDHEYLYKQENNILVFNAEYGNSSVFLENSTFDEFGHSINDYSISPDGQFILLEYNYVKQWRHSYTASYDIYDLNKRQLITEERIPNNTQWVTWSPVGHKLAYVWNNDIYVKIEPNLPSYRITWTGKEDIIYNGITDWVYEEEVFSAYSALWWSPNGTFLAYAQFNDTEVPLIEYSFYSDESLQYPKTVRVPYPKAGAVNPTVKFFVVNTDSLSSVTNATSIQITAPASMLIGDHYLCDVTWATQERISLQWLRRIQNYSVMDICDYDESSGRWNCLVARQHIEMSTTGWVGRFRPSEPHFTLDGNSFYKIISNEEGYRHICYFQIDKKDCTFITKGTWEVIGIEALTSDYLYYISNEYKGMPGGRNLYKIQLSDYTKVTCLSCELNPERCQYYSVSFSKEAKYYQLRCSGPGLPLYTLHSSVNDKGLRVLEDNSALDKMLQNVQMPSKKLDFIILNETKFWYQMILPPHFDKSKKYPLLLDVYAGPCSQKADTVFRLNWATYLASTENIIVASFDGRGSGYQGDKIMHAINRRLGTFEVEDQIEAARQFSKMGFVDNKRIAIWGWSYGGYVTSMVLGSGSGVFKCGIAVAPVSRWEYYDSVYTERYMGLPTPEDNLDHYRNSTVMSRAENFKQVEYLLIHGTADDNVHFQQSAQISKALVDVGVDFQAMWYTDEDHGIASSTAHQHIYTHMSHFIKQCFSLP

Going from `Cc1nnc(N2CCC[C@@H](N)C2)n(Cc2ccccc2C#N)c1=O` [Example 1, (R)-2-((3-(3-aminopiperidin-1-yl)-6-methyl-5-oxo-1,2,4-triazin-4(5H)-yl)methyl)benzonitrile] to `Cc1nnc(N2CCC[C@@H](N)C2)n(Cc2cc(F)ccc2Br)c1=O` [Example 2, (R)-3-(3-aminopiperidin-1-yl)-4-(2-bromo-5-fluorobenzyl)-6-methyl-1,2,4-triazin-5(4H)-one], the IC50 rises from 22 nM to 242 nM (11-fold). The first is the more potent here.

`Cc1nnc(N2CCC[C@@H](N)C2)n(Cc2cc(F)ccc2Cl)c1=O` [Example 4, (R)-3-(3-aminopiperidin-1-yl)-4-(2-chloro-5-fluorobenzyl)-6-methyl-1,2,4-triazin-5(4H)-one] was tested, and the IC50 was 640 nM.
